Results from PMC5940854, “Nitrothiophene carboxamides, a novel narrow spectrum antibacterial series: Mechanism of action and Efficacy” (Scientific Reports, 2018).
In brackets after ≈: the same amount, converted by molar mass. Where two headings read alike, the source gives them in different places.

Experiments:
[1] = molecular target: T1, NfsA (Escherichia coli, UniProt P17117); assay: Nitroreductase activity assay, NfsA; assay type: biochemical, E. coli; settings: 20 μM compound, 40 μM NADPH, 10 nM NfsA; slope of initial velocity
T1 construct: His-tag; made in house; host or cells: E. coli BL21(DE3), pET28a (pET-nfsA)
T1 sequence (P17117 whole entry): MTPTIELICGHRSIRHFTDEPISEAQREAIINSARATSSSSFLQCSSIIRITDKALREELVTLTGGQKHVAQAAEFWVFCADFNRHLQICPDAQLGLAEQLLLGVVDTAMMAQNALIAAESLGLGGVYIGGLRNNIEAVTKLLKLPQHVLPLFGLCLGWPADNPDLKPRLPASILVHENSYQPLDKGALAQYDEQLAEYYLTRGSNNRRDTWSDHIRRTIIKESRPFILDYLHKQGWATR
Method: (§1) Enzyme reducing each of the substrates are measured by monitoring the concomitant oxidation of NADPH by NfsA and NADH by NfsB in a fluorescence based assay. The reduction in fluorescence due to the NADH oxidation (excitation 350 nm, emission 460 nm) and NADPH oxidation (excitation 340 nm, emission 485 nm) is recorded using a TECAN Infinite M200Pro spectrophotometer, in half area solid black microtiter plates. This change in fluorescence directly corelates to the reduction of the nitro-compounds in the reaction. The NfsA assays is performed by initiating the reactions with 40 μM NADPH and 10 nM NfsA in 50 mM Tris-HCl (pH 7.4), 5 mM EDTA against 20 μM substrate (5 μl of compounds/substrate dissolved in 100% DMSO) in a total reaction volume of 100 μl at 25 °C. Similarly, the NfsB assay is also performed by initiating the reactions with 40 μM NADH and 70 nM NfsB in 50 mM Tris-HCl (pH 7.4), 5 mM EDTA against 20 μM substrate in a total reaction volume of 100 μl. […] All reactions are performed in replicates of two or more and the fluorescence measurements are made at 10 second intervals for 5–10 minutes.
(§2) Low solubility of the compounds/substrates under the NfsA and NfsB assay conditions precluded determination of their Km. […] The relative fluorescence units (RFU) obtained due to NADPH (excitation 340 nm, emission 485 nm) or NADH (excitation 350 nm, emission 460 nm) oxidation of the first 90 sec reaction is used to compute the slopes using linear regression analysis on GraphPad Prism. Appropriate blank reactions are included to account for background fluorescence/quenching from each of the components such as DMSO, the compound itself and auto-oxidation of NADPH or NADH. Activity of NfsB with a known substrate such as nitrofurantoin is used as a benchmark to plot the relative activities with all the test compounds.

[2] = tested on: wild-type E. coli CGSC#7636 (BW25113); assay: MIC, wild-type E. coli; assay type: cell-based; settings: for MIC: Escherichia coli, read-out: MIC WT
Method: (§3) The inoculum used for all the experiments is derived from a single seed lot that is maintained as glycerol stocks at −80 °C and are sub cultured on LB plate for isolated colonies. Single colony of each strain is grown in M9 medium. All test compound stocks and dilutions are prepared in DMSO. Serial two-fold dilutions of compounds are prepared separately, with the concentrations ranging from 2 mg/mL to 0.015 mg/mL. To 150 µl (3–7 × 10^5 CFU/ml) of bacterial culture in 96 well microtitre plates, 3 μL compound from each of the dilutions is added to respective wells to obtain final concentrations ranging from 40 µg/mL to 0.3 µg/mL of the test compounds. Media control, culture control and appropriate reference drug controls are included. […] Growth is monitored by checking absorbance at 600 nm (A600). […] The samples from MIC and above concentrations are plated for MBC (Minimum Bactericidal Concentration). The samples are diluted 1:10 and plated on LB agar plates. […] The killing kinetics is determined by enumerating survivors at various time points following compound exposure. E. coli cells (~10^7 CFU/ml; A600 of 0.1) are treated with various concentrations (40 µg/mL to 0.3 µg/mL) of compounds in a 96-well microtitre plate. At various time intervals (0 to 8 h), 30 μl volumes of treated cultures are serially diluted and plated on LB agar plates. […] Data is expressed as the log10 CFU for each drug treatment.

[3] = tested on: Klebsiella pneumoniae ATCC13883; assay: MIC, Klebsiella pneumoniae; assay type: cell-based; settings: for MIC Klebsiella pneumoniae: ATCC13883; for fold lower potency in comparison to E. coli WT MIC: WT K. pneumoniae ATCC strain
Method: as §3

[4] = tested on: E. coli ∆nfsB; assay: microbe, parasite or virus in culture; assay type: cell-based; settings: Escherichia coli, read-out: MIC ∆nfsB
Method: To assess the biological relevance of the interacting protein and establish the link between nitroreductases to the antibacterial activity of NTC compounds, single (ΔnfsA or ΔnfsB) and double knockouts (ΔnfsA & ΔnfsB) of nitroreductases were generated by phage transduction using strains from the Keio collection.
as §3
The wild-type E. coli strain BW25113 and the entire Keio collection of knockouts[22] is maintained as glycerol stocks at −80 °C in 96-well deep well blocks. […] These are sub cultured in 150 µl of LB broth (Kanamycin 50 ug/ml, except for the wild-type strain) in 96 well microtiter plates and then adapted into M9 medium with 0.4% glucose. […] Cultures of single gene knockouts that show an altered MIC as compared to that of the wild type are scored as ‘Hits’.

[5] = Cytotoxicity, MTS assay; assay type: cell-based; settings: human, A549 cells
Method: Cytotoxicity of the compounds was evaluated using MTS ((3-(4,5-dimethylthiazol-2-yl)-5-(3-carboxymethoxyphenyl)-2-(4-sulfophenyl)-2H-tetrazolium)) assay. A-549 cells were seeded in a 96 well plate at a density if 1.5 × 10^4 cells/well (100 μL). The cells were cultured in a CO2 incubator at 37 °C. A ten point concentration curve was set up starting from 5 nM to 100 μM with 3 fold dilution along with positive, negative and blank controls. The final concentration of DMSO was maintained at 1% throughout the plate. The compound treatment was carried out for 24 hrs. After incubation MTS reagent was added followed by 30 min incubation. The absorbance was measured at 490 nm. Data analysis was done using GraphPad Prism 6.0.

[6] = tested on: ATCC25922; assay: MIC on E. coli ATCC25922; assay type: cell-based; settings: strain ATCC25922
Method: as §3

[7] = molecular target: T2, NfsB (Escherichia coli, UniProt P38489); assay: Nitroreductase activity assay, NfsB; assay type: biochemical, E. coli; settings: 20 μM compound, 40 μM NADH, 70 nM NfsB; slope of initial velocity
T2 construct: His-tag; made in house; host or cells: E. coli BL21(DE3), pET28a (pET-nfsB)
T2 sequence (P38489 whole entry): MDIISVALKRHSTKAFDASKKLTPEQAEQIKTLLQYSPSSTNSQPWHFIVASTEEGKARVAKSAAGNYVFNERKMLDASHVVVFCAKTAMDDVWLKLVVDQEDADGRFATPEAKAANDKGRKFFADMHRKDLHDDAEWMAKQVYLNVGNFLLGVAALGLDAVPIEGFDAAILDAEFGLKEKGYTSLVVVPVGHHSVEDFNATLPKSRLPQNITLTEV
Method: as §1, §2

With `O=C(Nc1nc(-c2ccc(F)cc2F)cs1)c1ccc([N+](=O)[O-])s1` [compound 12, N-(4-(2,4-difluorophenyl)thiazol-2-yl)-5-nitrothiophene-2-carboxamide] the “NfsA activity (rate of compound conversion)” value (“NfsA activity” below) [1] was 2.30 µM/min, the MIC ([2]; BW25113, E. coli WT BW25113) was 0.6 µg/mL (≈ 1.63 µM) and the MIC ([2]; BW25113, Table S11) was 0.6 µg/mL (≈ 1.63 µM). For the same molecule, the MIC Klebsiella pneumoniae [3] was 2.5 µg/mL (≈ 6.81 µM), the “fold lower potency in comparison to E. coli WT MIC” value (shortened to “fold lower potency in comparison”) [3] was 4-8 fold and the MIC [4] was 2.5 µg/mL (≈ 6.81 µM). For the same molecule, the IC50 at 24 h [5] was 16.9 µg/mL (≈ 46 µM), the MIC [6] was 1 µg/mL (≈ 2.72 µM) and the “NfsB activity (rate of compound conversion)” value (from here on “NfsB activity”) [7] was 6.26 µM/min.
For `COc1cc(-c2csc(NC(=O)c3ccc([N+](=O)[O-])s3)n2)ccc1Cl` [compound 20, N-(4-(4-chloro-3-methoxyphenyl)thiazol-2-yl)-5-nitrothiophene-2-carboxamide], the “NfsA activity” value [1] was 0.61 µM/min, the MIC ([2]; BW25113, Table S11) was 1.25 µg/mL (≈ 3.16 µM) and the MIC Klebsiella pneumoniae [3] was 10 µg/mL (≈ 25.3 µM). For the same molecule, the “fold lower potency in comparison” value [3] was 4-8 fold, the MIC [4] was 2.5 µg/mL (≈ 6.32 µM) and the IC50 at 24 h [5] was 8.3 µg/mL (≈ 21 µM). For the same molecule, the MIC [6] was 2 µg/mL (≈ 5.05 µM) and the “NfsB activity” value [7] was 3.50 µM/min.
For `O=C1CN(/N=C/c2ccc([N+](=O)[O-])o2)C(=O)N1` [nitrofurantoin, reference compound], the “NfsA activity” value [1] was 3.58 µM/min, the MIC ([2]; BW25113, E. coli WT BW25113) was 2.5 µg/mL (≈ 10.5 µM) and the MIC [4] was 2.5 µg/mL (≈ 10.5 µM). The MIC [6] was 20 µg/mL (≈ 84 µM) and the “NfsB activity” value [7] was 3.50 µM/min.
For `O=C(Nc1nc(-c2ccc(F)cc2)cs1)c1ccc([N+](=O)[O-])s1` [compound 15, N-(4-(4-Fluorophenyl)thiazol-2-yl)-5-nitrothiophene-2-carboxamide], the “NfsA activity” value [1] was 2.05 µM/min, the MIC ([2]; BW25113, E. coli WT BW25113) was 1.25 µg/mL (≈ 3.58 µM) and the MIC ([2]; BW25113, Table S11) was 1.25 µg/mL (≈ 3.58 µM). For the same molecule, the MIC Klebsiella pneumoniae [3] was 5 µg/mL (≈ 14.3 µM), the “fold lower potency in comparison” value [3] was 4-8 fold and the MIC [4] was 5 µg/mL (≈ 14.3 µM). For the same molecule, the IC50 at 24 h [5] was 10.2 µg/mL (≈ 29.2 µM), the MIC [6] was 1.25 µg/mL (≈ 3.58 µM) and the “NfsB activity” value [7] was 7.64 µM/min.
For `Cc1sc(NC(=O)c2ccc([N+](=O)[O-])s2)nc1-c1ccccc1` [compound 7, N-(5-Methyl-4-phenylthiazol-2-yl)-5-nitrothiophene-2-carboxamide], the “NfsA activity” value [1] was 0.64 µM/min, the “MIC WT” value ([2]; E. coli WT BW25113) was greater than 40 µg/mL and the MIC ([2]; BW25113, E. coli WT BW25113) was greater than 40 µg/mL. For the same molecule, the MIC [4] was greater than 40 µg/mL and the “NfsB activity” value [7] was 6.17 µM/min.
